Counter-ions that a name gives are not always drawn. Calls of active or inactive are those of the source. Cut-off read from the data, not from the text of the source, for most assays here: actives have a measured EC50 and inactives only a lower limit. Where only a bound is given, the exact number is not on record here.

As a reminder, the EC50 is the concentration that produces a half-maximal response. In general, IC50 refers to the concentration that gives 50% inhibition. What is called AC50 is the concentration giving half of the maximal activity seen.

Test [1] has as its target T1, Zinc finger protein mex-5 (Caenorhabditis elegans, UniProt Q9XUB2).
T1 sequence (Q9XUB2 whole entry): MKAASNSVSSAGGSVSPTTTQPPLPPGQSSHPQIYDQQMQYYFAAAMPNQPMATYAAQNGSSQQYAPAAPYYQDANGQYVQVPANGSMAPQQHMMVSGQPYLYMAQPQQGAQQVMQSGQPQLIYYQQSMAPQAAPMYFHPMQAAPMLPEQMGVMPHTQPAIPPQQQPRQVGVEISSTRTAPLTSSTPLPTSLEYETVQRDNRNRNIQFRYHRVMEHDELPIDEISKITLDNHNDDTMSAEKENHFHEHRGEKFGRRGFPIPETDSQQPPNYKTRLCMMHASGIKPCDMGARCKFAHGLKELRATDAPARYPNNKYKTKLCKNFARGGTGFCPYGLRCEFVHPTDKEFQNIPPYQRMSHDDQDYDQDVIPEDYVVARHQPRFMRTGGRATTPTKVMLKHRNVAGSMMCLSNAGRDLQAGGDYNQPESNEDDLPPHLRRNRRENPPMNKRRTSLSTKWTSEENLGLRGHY
As to the kind of experiment: MEX-5/TCR-2 RNA interaction inhibitors, dose response, biochemical, C. elegans, fluorescence polarization (AID 1960). (In general: Fluorescence polarisation rises when a labelled molecule tumbles more slowly, as on binding a larger partner.)

Test [2] has as its target T2, RNA-binding protein pos-1 (Caenorhabditis elegans, UniProt G5EF15).
T2 sequence (G5EF15 whole entry): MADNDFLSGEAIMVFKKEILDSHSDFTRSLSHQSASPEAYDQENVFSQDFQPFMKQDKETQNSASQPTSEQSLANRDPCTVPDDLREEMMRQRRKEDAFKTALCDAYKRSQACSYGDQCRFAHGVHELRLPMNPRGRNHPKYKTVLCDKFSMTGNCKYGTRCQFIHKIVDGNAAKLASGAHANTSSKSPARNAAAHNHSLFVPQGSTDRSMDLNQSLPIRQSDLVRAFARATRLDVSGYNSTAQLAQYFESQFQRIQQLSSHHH
As to the kind of experiment: inhibitors of POS-1/mex-3 RNA binding, dose response, biochemical, fluorescence polarization (AID 1964).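 Note: purified POS-1 fused to maltose binding protein made in E. coli; potency of compounds blocking POS-1 binding to fluorescent RNA.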

The next test is described as follows: cells. The class given is functional.
In another test the target is T3, Protein skinhead-1 (Caenorhabditis elegans, UniProt P34707).
T3 sequence (P34707 whole entry): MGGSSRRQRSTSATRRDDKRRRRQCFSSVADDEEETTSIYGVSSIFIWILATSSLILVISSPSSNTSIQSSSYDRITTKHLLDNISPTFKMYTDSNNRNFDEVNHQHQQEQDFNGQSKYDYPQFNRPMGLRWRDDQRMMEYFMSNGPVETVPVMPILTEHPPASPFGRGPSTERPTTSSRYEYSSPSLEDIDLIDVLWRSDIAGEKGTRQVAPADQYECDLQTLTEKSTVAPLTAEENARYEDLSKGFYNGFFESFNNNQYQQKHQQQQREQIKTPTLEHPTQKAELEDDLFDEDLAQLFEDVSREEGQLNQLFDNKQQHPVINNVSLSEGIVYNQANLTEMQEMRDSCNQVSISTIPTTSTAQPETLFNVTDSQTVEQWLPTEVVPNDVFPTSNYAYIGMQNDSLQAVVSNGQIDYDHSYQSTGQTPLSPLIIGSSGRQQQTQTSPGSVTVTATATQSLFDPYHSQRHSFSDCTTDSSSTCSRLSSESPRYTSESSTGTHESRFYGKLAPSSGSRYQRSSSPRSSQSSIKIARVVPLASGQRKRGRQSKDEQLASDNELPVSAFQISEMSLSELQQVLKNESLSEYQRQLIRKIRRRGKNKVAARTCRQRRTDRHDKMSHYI
The class given is functional.

For the next test, the target named is Cytochrome P450 2C9 (Homo sapiens, UniProt P11712).
Chain of Cytochrome P450 2C9 (P11712 whole entry): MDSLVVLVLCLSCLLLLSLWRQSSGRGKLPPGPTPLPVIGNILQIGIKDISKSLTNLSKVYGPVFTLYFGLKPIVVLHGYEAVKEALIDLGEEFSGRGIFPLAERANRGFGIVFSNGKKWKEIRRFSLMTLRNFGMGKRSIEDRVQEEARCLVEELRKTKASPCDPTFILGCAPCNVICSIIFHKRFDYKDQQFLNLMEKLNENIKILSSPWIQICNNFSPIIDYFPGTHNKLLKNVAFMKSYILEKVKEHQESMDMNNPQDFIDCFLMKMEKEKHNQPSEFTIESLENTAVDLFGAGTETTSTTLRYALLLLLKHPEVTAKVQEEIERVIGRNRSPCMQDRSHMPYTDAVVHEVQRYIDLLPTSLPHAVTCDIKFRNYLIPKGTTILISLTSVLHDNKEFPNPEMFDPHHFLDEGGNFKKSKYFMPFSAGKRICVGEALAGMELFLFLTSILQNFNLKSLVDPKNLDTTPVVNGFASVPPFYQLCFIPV
Test [3] in a line: inhibitors of firefly luciferase expression or activity, dose response, H4 neuroglioma cells, luminescence (AID 1990). The class given is functional, cell-based.
Test [4] in a line: inhibitors of SNCA 5'UTR-driven reporter translation, confirmation, H4 neuroglioma cells, luminescence (AID 1988). The class given is functional, cell-based.
The nature of test [5]: Luminescence Cell-Based Dose Response HTS to Identify Inhibitors of 5'UTR Stem-Loop Driven Prion Protein mRNA Translation in H4 Neuroglioblastoma Cells. [Related pubchem assays: 1827 (Project Summary), 1813 (Primary HTS)]. The class given is functional.
The target of test [6] is T4, Heat shock factor protein 1 (Mus musculus, UniProt P38532).
T4 sequence (P38532 whole entry): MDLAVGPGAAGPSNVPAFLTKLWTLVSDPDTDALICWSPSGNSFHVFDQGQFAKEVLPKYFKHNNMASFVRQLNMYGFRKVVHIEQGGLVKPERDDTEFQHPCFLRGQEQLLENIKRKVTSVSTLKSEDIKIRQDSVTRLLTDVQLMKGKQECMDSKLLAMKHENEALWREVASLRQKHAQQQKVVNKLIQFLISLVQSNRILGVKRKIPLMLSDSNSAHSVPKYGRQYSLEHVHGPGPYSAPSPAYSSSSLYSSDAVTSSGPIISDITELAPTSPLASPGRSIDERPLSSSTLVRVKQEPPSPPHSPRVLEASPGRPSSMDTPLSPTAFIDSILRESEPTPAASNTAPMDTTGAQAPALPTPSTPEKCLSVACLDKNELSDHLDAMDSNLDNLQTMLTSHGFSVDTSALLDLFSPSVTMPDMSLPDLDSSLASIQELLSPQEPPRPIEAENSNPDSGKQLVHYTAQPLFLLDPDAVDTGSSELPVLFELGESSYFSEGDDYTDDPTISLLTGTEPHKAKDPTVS
Kind of test: inhibition of MG132-induced HSE-luciferase signal, confirmation, cell-based, NIH3T3, luminescence, dose retest (AID 2382).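 Note: NIH3T3 fibroblasts with HSF1-driven luciferase reporter stressed by proteasome inhibitor MG132; luminescence from HSF1-driven luciferase expression after 8 hours of MG132 stress.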 The class given is functional.

A short description of test [7]: Luminescence Cell-Based Dose Retest to Confirm Inhibitors of Cancer Stem Cells. [Related pubchem assays (depositor defined):AID2717, AID2721]. The class given is functional. As to conditions: Homo sapiens.
Another test addresses Cytochrome P450 3A4 (Homo sapiens, UniProt P08684).
In the next test the target is T5, Cytochrome P450 1A2 (Homo sapiens, UniProt P05177).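 Note: PubChem cytochrome P450 panel assay, CYP1A2 panel member.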
T5 sequence (P05177 whole entry): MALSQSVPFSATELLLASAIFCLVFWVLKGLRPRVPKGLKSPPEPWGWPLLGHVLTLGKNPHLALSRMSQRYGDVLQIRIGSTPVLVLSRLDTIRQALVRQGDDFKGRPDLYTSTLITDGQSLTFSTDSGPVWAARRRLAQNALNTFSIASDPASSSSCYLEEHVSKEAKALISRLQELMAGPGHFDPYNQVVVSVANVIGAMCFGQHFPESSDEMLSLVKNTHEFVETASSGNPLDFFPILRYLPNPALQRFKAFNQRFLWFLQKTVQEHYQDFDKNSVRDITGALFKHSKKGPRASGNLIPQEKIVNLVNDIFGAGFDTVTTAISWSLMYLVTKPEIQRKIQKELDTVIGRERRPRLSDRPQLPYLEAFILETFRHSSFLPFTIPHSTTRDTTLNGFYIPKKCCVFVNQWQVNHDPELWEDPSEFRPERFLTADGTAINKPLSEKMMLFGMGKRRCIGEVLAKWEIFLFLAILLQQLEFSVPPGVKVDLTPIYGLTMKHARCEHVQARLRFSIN

Test [8] can be described thus: inhibitors of intracellular T. cruzi replication, confirmation, NIH3T3 host cells, beta-gal luminescence (AID 2044).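 Note: intracellular parasites grown in NIH/3T3 mouse fibroblasts as host cells; luminescent beta-galactosidase reporter signal from transgenic T. cruzi replicating inside host cells; inhibitors lower the luminescence signal.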 The class given is functional, cell-based.
The nature of test [9]: cytotoxicity toward NIH3T3 fibroblasts, dose response, counter-screen, cell-based, ATP luminescence, mouse fibroblasts (AID 2010).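 Note: cells exposed to compound for about 90 hours before reading.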 The class given is functional. (A counterscreen serves to expose hits that act by an unwanted route or on another target.)

Chain of Cytochrome P450 3A4 (P08684 whole entry): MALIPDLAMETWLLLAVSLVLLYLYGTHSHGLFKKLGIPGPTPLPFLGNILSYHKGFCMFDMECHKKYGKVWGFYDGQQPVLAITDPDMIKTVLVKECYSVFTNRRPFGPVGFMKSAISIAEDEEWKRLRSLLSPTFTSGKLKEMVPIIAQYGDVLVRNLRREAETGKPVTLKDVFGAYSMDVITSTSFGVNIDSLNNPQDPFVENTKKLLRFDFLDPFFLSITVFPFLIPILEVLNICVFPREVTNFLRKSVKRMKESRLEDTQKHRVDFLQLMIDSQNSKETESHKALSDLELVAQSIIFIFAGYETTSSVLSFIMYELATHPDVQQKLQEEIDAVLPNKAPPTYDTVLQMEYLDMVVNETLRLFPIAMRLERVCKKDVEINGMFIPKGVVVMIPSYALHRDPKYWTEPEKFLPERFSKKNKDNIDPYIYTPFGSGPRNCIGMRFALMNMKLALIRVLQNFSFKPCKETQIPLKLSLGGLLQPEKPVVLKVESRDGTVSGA

With `Cc1ccccc1C1=N/C(=C/c2cccs2)C(=O)O1`, the half-maximal effective concentration (EC50) in test [1] was 39.1 µM (active); in [2], > 300 µM (not active). In the case of `COC(=O)C1=C(N)OC2=C(C(=O)CC(C)(C)C2)C1c1cccnc1` (configuration not stated), the IC50 in “cells” is > 50 µM (active). For `COc1ccccc1N1CCN(CCC(=O)Nc2ccc3c(c2)OCO3)CC1`, the IC50 on Protein skinhead-1 is > 100 µM (inactive). Consider `COc1ccc(NC(=O)c2ccc(C(=O)c3cc(OC)ccc3OC)cc2)cc1`, for which the AC50 at Cytochrome P450 2C9 was 22.4 µM (inconclusive). Still for that read-out and setting: under `Fc1ccc([C@H]2CCNC[C@H]2COc2ccc3c(c2)OCO3)cc1` stands 2 µM (inconclusive).

Take `CCC(NC(C)c1ccccc1)=C1C(=O)NC(=O)NC1=O` (configuration not stated): the results for the EC50 in test [3], in test [4] and in test [5] were 18 µM (active), 18.2 µM (active) and > 120 µM (not active), respectively. `N#CC1=C(N)Oc2cc(N)ccc2C1c1ccccc1Cl` (configuration not stated): the concentration giving a half-maximal response (EC50) in [6] is > 195 µM (not active). Still for that read-out and setting: with `CSc1ccc(CN(C)Cc2cc(=O)oc3c(C)c(C)ccc23)cc1` the figure was > 195 µM (not active). Consider `COc1ccc(C2C3=C(N=C4SCC(=O)N42)c2ccccc2CC3)cc1OC` (configuration not stated), for which the IC50 on Protein skinhead-1 is > 100 µM (inactive). For the compound `C=CCNC(=S)NNC(=O)c1cc(-c2cccnc2)nc2ccccc12`, the EC50 in test [6] is given as > 195 µM (not active). As to `Cc1ccc(CSc2nc3ccccc3c(=O)n2Cc2ccco2)cc1`, on Protein skinhead-1, the IC50 was > 100 µM (inactive).

Regarding `CCN(CC)CCN/C=C1\C(=O)NC(=O)N(CCc2ccccc2)C1=O`, the EC50 in test [1] and in [2] was > 300 µM (not active) in each case. As to `CCN1C(=O)NC(=O)/C(=C\c2cn(CC(=O)O)c3ccccc23)C1=O`, the EC50 in [1] and in test [2] was > 300 µM (not active) each time. Consider `CC(C)CC(=O)Nc1c2c(nn1-c1ccc(F)cc1)C[S+]([O-])C2` (configuration not stated), for which, in test [6], the EC50 was > 195 µM (not active).

In the case of `CCOCCOC(=O)c1ccc(NC(=O)C2COc3ccccc3O2)cc1` (configuration not stated), the IC50 in the test “cells” was 15.2 µM (active). In the case of `CCn1ncc2c(OCc3ccc(C#N)cc3)cc(C)nc21`, the figures for the EC50 in [3], in test [4] and in [5] were 21.5 µM (active), 61.8 µM (active) and 24.9 µM (active), respectively. As for `Clc1ccc(-c2cnc3ccccc3n2)cc1`, the IC50 on Protein skinhead-1 is 92 µM (inactive).

For the compound `CCCc1cc(-c2nc(-c3ccc(Cl)cc3)cs2)ccn1`, at Protein skinhead-1, the IC50 was 21 µM (active). For the same compound, in test [7], the AC50 was 8.69 µM (active). As to `CC(C)NC(=O)N1CCCC2(CCN(C(=O)Oc3ccccc3)CC2)C1`, the half-maximal activity concentration (AC50) was 25.1 µM (inconclusive) on Cytochrome P450 3A4, 12.6 µM (inconclusive) at Cytochrome P450 1A2 and 12.6 µM (inconclusive) at Cytochrome P450 2C9. `Nc1ccc(-n2nc3ccccc3n2)cc1`: the EC50 was 31.8 µM (active) in test [3], 5.68 µM (active) in test [4] and 67 µM (active) in [5].

Take `COc1ccc(S(=O)(=O)N2CCCCCC2)cc1NC(=O)Cc1ccccc1F`: the figures for the half-maximal effective concentration (EC50) in [3], in test [4] and in [5] were 76.1 µM (active), > 120 µM (not active) and > 120 µM (not active), respectively. `CCn1c(CSc2nnc(-c3ccncc3)n2CCOC)nc2cc(C(=O)O)ccc21`: at Protein skinhead-1, the IC50 was > 100 µM (inactive). Regarding `NS(=O)(=O)c1ccc(/N=N\c2ncccc2O)cc1`, the concentration at half-maximal activity (AC50) is 3.98 µM (inconclusive) at Cytochrome P450 3A4, 2 µM (inconclusive) on Cytochrome P450 1A2 and 6.31 µM (inconclusive) at Cytochrome P450 2C9. `O=C(NNc1nc2ccccc2s1)Nc1ccccc1`: in [6], the EC50 is reported as > 195 µM (not active). As to `O=C(CCl)NC(Cc1ccccc1)c1ccccc1` (configuration not stated), the EC50 in test [6] was 17.1 µM (active).

Turning to `Cc1nc2c(sc3nc(N4CCOCC4)c4c(c32)CC(C)(C)OC4)c(-c2ccc(Cl)cc2)c1C(=O)O`, in [6], the EC50 is recorded as > 195 µM (not active). Take `O=C(Nc1ccc(Cl)c(C(F)(F)F)c1)C1CCCN(S(=O)(=O)c2c[nH]cn2)C1` (configuration not stated): the AC50 on Cytochrome P450 2C9 was 0.501 µM (inconclusive). As to `CCCCNC(=O)OCC(CC)NC(=O)OCC(C)C` (configuration not stated), the IC50 on Protein skinhead-1 was > 100 µM (inactive). As to `Cc1csc2nc(CNS(=O)(=O)c3ccc4c(c3)CCCC4)cn12`, the IC50 at Protein skinhead-1 was > 100 µM (inactive). Still for that read-out and setting: under `CCc1nc2ccccc2c(C(=O)OCC(=O)N(CCOC)c2c(N)n(Cc3ccccc3)c(=O)[nH]c2=O)c1C` stands > 100 µM (inactive). On to `C/C(=N\Nc1cccc2cccnc12)c1ccccn1`, for which the IC50 in the test “cells” was 13.8 µM (active). Further, the EC50 is 2.51 µM (active) in test [8] and > 60 µM (not active) in test [9]. For the compound `Cn1c(=O)c2nc(N/N=C(/C#N)C(N)=O)[nH]c2n(C)c1=O`, the EC50 in test [1] is 52.4 µM (active); in test [2] it was > 300 µM (not active).

Regarding `Cc1oc(/N=C/c2ccc(O)cc2O)c(C#N)c1C`, the 50% effective concentration (EC50) in test [1] and in test [2] was > 300 µM (not active) each time. With `CCO/C(C)=N/n1c2nc3ccccc3nc2c2c(=O)n(CC(C)C)c(C)nc21`, on Cytochrome P450 2C9, the AC50 was 12.6 µM (inconclusive). Turning to `COc1ccc2c3c1O[C@H]1C[C@@H](O)C=C[C@@]31CCN(C)C2` [GALANTAMINE HYDROBROMIDE], the EC50 is > 120 µM (not active) in test [3], 11.1 µM (active) in test [4] and > 120 µM (not active) in test [5].

(Values after ChEMBL document CHEMBL1201862, “PubChem BioAssay data set” (2004).)
